Molecules are shown by their SMILES. “And” between values parts separate entries of the source, which are not always exact repeats. Identical values can stand only once.

The experiment has as its target Tyrosine-protein kinase JAK2 (Homo sapiens, UniProt O60674). The experiment in a line: Jak2 Tyrosine Kinase Assay: The assays were performed in V-bottom 384-well plates. The final assay volume was 30 μl prepared from 15 μl additions of enzyme and substrates (fluoresceinated peptide and ATP) and test compounds in assay buffer (100 mM HEPES pH 7.4, 10 mM MgCl2, 25 mM beta-glycerolphosphate, […] Brij 35 surfactant and 4 mM DTT). The reaction was initiated by the combination of Jak2.

Tyrosine-protein kinase JAK2, sequence (O60674 whole entry): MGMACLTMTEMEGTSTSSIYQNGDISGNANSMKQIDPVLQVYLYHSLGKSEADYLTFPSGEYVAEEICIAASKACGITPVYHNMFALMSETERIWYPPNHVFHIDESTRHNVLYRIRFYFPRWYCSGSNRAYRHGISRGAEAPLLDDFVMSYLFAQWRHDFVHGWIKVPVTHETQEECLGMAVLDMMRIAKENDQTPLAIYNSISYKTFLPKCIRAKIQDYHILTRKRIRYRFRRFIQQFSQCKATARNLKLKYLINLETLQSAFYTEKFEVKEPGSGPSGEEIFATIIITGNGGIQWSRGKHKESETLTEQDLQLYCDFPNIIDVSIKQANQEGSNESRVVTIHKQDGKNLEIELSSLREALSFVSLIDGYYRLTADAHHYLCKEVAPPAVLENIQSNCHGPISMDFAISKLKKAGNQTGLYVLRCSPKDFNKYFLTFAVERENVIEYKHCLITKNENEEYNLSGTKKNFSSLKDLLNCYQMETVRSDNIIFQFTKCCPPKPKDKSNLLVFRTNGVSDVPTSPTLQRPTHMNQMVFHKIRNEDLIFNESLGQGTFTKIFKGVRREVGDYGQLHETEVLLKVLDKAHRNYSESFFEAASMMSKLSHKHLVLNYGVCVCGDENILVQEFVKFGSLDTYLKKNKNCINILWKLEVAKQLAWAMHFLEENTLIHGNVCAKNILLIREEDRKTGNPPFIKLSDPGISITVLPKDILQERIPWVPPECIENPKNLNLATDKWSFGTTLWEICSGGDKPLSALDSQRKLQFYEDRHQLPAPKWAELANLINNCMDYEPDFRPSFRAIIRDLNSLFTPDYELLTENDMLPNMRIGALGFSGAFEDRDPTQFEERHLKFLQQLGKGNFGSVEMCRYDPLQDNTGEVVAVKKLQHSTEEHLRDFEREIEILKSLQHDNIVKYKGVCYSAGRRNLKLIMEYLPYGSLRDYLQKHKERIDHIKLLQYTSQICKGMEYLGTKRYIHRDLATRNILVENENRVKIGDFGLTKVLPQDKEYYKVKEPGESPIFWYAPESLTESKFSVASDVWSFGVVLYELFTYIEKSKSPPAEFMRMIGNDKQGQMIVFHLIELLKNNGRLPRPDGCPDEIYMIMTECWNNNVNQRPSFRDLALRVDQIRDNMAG

`Cc1c(-c2c(F)cc(C(N)=O)c3[nH]c4cc(C(C)(C)O)ccc4c23)cccc1-n1c(=O)[nH]c2c(F)cccc2c1=O`: the half-maximal inhibitory concentration (IC50) worked out at 1700 nM.
To `Cc1c(-c2c(Cl)cc(C(N)=O)c3[nH]c4cc(C(C)(C)O)ccc4c23)cccc1-n1c(=O)cc2c(Cl)cccn2c1=O` belongs 1400 nM and 970 nM.

These data come from ChEMBL document CHEMBL3886711, “Substituted tetrahydrocarbazole and carbazole carboxamide compounds” (2016).
